Test results: patent US11413278B2, “Compounds and methods for promoting stress resistance” (priority 2015, dated 2022)
Entries after “also recorded” stand apart in the source; their conditions may differ. Read-outs that look alike come from different tables or passages of the source.

Legend:
[1] = test system: HTB-178 lung tumor cells (EGFR+, PIK3CA+, RB1−, TP53−); experiment: Killing effects on HTB-178 tumor cells; assay type: cell-based, human
in vitro = assay type: cell-based, human; details: human
C. elegans = C. elegans lifespan assays (liquid and plate); assay type: in vivo, Caenorhabditis elegans; details: for ILS at 60 µM / ILS at 66 µM: Caenorhabditis elegans; for O = Life span- extending scores in worms: score scale 0 to 2, 4 to 6 independent trials; for M = Lifespan-extending scores in worms: summary score; for Extension of C. elegans' lifespan (qualitative): in at least 3 to 4 trials, group range ~10% to ~50%
FOXO3 = FOXO3 siRNA knockdown: dependency for H2O2-resistance; assay type: cell-based, human; details: for FOXO3-dependency for H2O2-resistance (experiment 3): with & without H2O2, FOXO3 knockdown in WI-38 cells; for FOXO3-dependency for H2O2-resistance, at 10 uM - with H2O2, 1st experiment: experiment 1 (1st); for Assay 16: FOXO3-dependency for H2O2-resistance: YES/NO; for Requirement of FOXO3 to promote H2O2-resistance: FOXO3 siRNA, at least 2 of 3 independent experiments
human protein targets = details: PubChem database queries; cited from earlier work
[2] = 60 μM, in liquid, wild type, with FuDR, 1.0 × 10^9 bacteria/ml, read-out: relative change of mean lifespan vs control, Trial 1
[3] = 60 μM, in liquid, wild type, with FuDR, 2.5 × 10^9 bacteria/ml, read-out: relative change of mean lifespan vs control, Trial 2
[4] = 60 μM, on plate, CF512 temperature-sensitive sterile animals, without FuDR, 2.0 × 10^10 bacteria/ml, read-out: relative change of mean lifespan vs control, Trial 3
[5] = Assay 2(z), 1.0 × 10^9 bacteria/ml, wild type + FuDR (2012 July), read-out: Lifespan assay in liquid
[6] = Assay 3(aa), 2.5 × 10^9 bacteria/ml, wild type + FuDR, read-out: Lifespan assay in liquid
[7] = Assay 4(ab), 2.0 × 10^10 bacteria/ml, CF512 worms, no FuDR, read-out: Lifespan assay on plates
[8] = 10 uM, YES = resistance reduced by at least 50%, partial = 25% to 50%
[9] = 10 uM, with H2O2, FOXO3 knockdown in WI-38 cells, YES = resistance reduced by at least 50%, partial = 25% to 50%
[10] = 60 μM, on plate, CF512 temperature-sensitive sterile animals, without FuDR, 1.0 × 10^11 bacteria/ml, read-out: relative change of mean lifespan vs control, Trial 4
[11] = Assay 5(ac), 1.0 × 10^11 bacteria/ml, CF512 worms, no FuDR, read-out: Lifespan assay on plates

SMILES | Potential killing effects on HTB-178 tumor cells, 1st ([1]; Assay 1(y), at 10 uM) | cytotoxicity at 24 h, 10 uM (in vitro) | ILS at 60 µM (C. elegans; [2]) | ILS at 60 µM (C. elegans; [3]) | ILS at 60 µM (C. elegans; [4]) | ILS at 66 µM (C. elegans; [5]) | ILS at 66 µM (C. elegans; [6]) | ILS at 66 µM (C. elegans; [7]) | O = Life span- extending scores in worms (C. elegans) | M = Lifespan-extending scores in worms (C. elegans) | FOXO3-dependency for H2O2-resistance (experiment 3) (FOXO3; [8]) | I = FOXO3-dependency for H2O2-resistance (FOXO3; score) | I = FOXO3-dependency for H2O2-resistance (FOXO3; summary score) | Potential targets: human protein targets (confirmed) (human protein targets) | FOXO3-dependency for H2O2-resistance, at 10 uM (experiment 3) - with & without H2O2 (FOXO3; 10 uM) | ILS at 60 µM (C. elegans; [10]) | ILS at 66 µM (C. elegans; [11]) | Extension of C. elegans' lifespan (qualitative) (C. elegans) | FOXO3-dependency for H2O2-resistance, at 10 uM - with H2O2, 1st experiment (FOXO3; 10 uM, with H2O2) | FOXO3-dependency for H2O2-resistance, 1st experiment (FOXO3; [9]) | further results
NS(=O)(=O)c1ccc(NC(=O)c2ccc([N+](=O)[O-])o2)cc1 [Gr-1A] | YES; | 30% | -1.3% | 0.2% | 14.2% | -1.3% | 0.2% | 14.2% | 0 | 0 | No | 0 | 0 | – | – | – | – | – | – | – | FOXO3-dependency for H2O2-resistance (experiment 1 & 2) (FOXO3; [9]): No
Cc1ccc(NC(=O)c2ccc([N+](=O)[O-])o2)cc1C [Gr-1F] | – | 50% | 22.3% | 0.6% | 11.3% | 22.3% | 0.6% | 11.3% | 1 (1 for lifespan extension observed in 2 trials) | 1 (1 for lifespan extension observed in 2 trials) | YES | 0 | 0 | CASP3, CFTR, GMNN, IDH1, IL1B, JAK2, SENP6, SENP7, SENP8, STAT1, and TDP1 | YES | – | – | – | – | – | –
O=C(NCc1cccnc1)/C(=C\c1cccc(Oc2ccccc2)c1)S(=O)(=O)c1ccccc1 [Gr-7A] | YES; | 84% | 40.6% | 16.2% | 13.9% | 40.6% | 16.2% | 13.9% | 2 (2 for observed in more than 2 trials) | 2 (2 for observed in more than 2 trials) | YES | 1 | 1 | – | YES | 2.7% | 2.7% | could extend animal's lifespan | 1st, partial; | partial; | Assay 21: Potential killing effects on HTB-178 tumor cells ([1]; 10 uM, YES/NO): YES; Toxicity / viability of HTB-178 lung tumor cells ([1]; 10 μM, preliminary data): exerted more pronounced toxicity; also recorded: significantly reduce the viability; Potential killing effects on HTB-178 tumor cells, 2nd ([1]; Assay 1(y), at 10 uM, 2nd): YES.; FOXO3-dependency for H2O2-resistance, at 10 uM - with H2O2, 2nd experiment (FOXO3; 10 uM, experiment 2 (2nd), with H2O2): 2nd, YES.; FOXO3-dependency for H2O2-resistance, 2nd experiment (FOXO3; [9]): YES.; Assay 16: FOXO3-dependency for H2O2-resistance (FOXO3; 10 uM): YES; Requirement of FOXO3 to promote H2O2-resistance (FOXO3): required FOXO3
O=C(NCc1cccnc1)/C(=C/c1ccc(-c2ccc(Cl)cc2)o1)S(=O)(=O)c1ccccc1 [Gr-7C] | – | 60% | -29.1% | 10.1% | -41.6% | -29.1% | 10.1% | -41.6% | 0 | 0 | Partial | 1 | 1 | ABHD5, ADRB2, ATXN2, BARD1, BRCA1, CFTR, CHRM4, CYP2C19,; also recorded: EPAS1, GMNN, GPR183, HIF1A, HNF4A, IDH1, IL1B, KCNJ1, MDM2,; also recorded: MDM4, MITF, NCOA1, NCOA2, NCOA3, NFE2L2, NOD1, NOD2, NOD2,; also recorded: NPBWR1, NPSR1, NPY1R, NPY2R, NR2E3, NR2F2, NR5A1, NR5A2, PLIN5,; also recorded: RIPK2, S1PR1, S1PR2, TDP1, TNF, VDR | Partial | – | – | – | 1st, YES; | YES; | Assay 16: FOXO3-dependency for H2O2-resistance (FOXO3; 10 uM): YES; Requirement of FOXO3 to promote H2O2-resistance (FOXO3): required FOXO3
O=C(c1ccc([N+](=O)[O-])o1)N1CCc2ccccc21 [O13] | YES; | – | 32.7% | 10.3% | 27.3% | 32.7% | 10.3% | 27.3% | 2 (2 for observed in more than 2 trials) | 2 (2 for observed in more than 2 trials) | – | 0 | 0 | CASP3, DRD2, GMNN, HCRTR1, NR5A1, NR5A2, SENP6, SENP8, SSP1, and TDP1 | – | 15% | 15% | could extend animal's lifespan | – | – | relative change of mean lifespan vs control, Trial 6 (confirmative) (C. elegans; 60 μM, on plate, temperature-sensitive sterile animals, without FuDR, 1.0 × 10^11 bacteria/ml): +15.3%; relative change of mean lifespan vs control, Trial 5 (confirmative) (C. elegans; 60 μM, on plate, temperature-sensitive sterile animals, without FuDR, 2.0 × 10^10 bacteria/ml): +8.4%; Lifespan, average increase (C. elegans; 4 or more trials): 18.2%; ILS at 66 µM (C. elegans; Assay 6(ad), 2.0 × 10^10 bacteria/ml, CF512 worms, no FuDR, read-out: Lifespan assay on plates): 8.4%; ILS at 66 µM (C. elegans; Assay 7(ae), 1.0 × 10^11 bacteria/ml, CF512 worms, no FuDR, read-out: Lifespan assay on plates): 15.3%; Lifespan, mean (FIG. 6B) (C. elegans; temperature-sensitive sterile rollers, on plate, without FuDR, 25° C. then ~22° C., control 18.4±0.4): 23.4±0.4; Lifespan increase (FIG. 6A) (C. elegans; wild-type, in liquid, with FuDR, 20° C., ~60 μM): ~33.2%; Lifespan, mean±SD (FIG. 6A) (C. elegans; wild-type, in liquid, with FuDR, 20° C., ~60 μM, control 21.1±0.5): 28.1±1.1
COc1cccc(/C=C2\CN(C)C/C(=C\c3cccc(OC)c3OC)C2=O)c1OC [O23] | YES; | 40% | 36.2% | 17.4% | 21.6% | 36.2% | 17.4% | 21.6% | 2 (2 for observed in more than 2 trials) | 2 (2 for observed in more than 2 trials) | YES | 0 | 0 | – | YES | -0.3% | -0.3% | could extend animal's lifespan | – | – | Trials with lifespan extension (C. elegans; positive of total trials): 3 of 4
